This assay addresses ROCK2 (Homo sapiens (Human), UniProt O75116). The experiment in a line: biochemical.

Each structure is given as a SMILES string. Structures can show the parent of a compound that is named as a salt.
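Further: rho kinase enzyme reaction halted with EDTA, phospho- and non-phospho peptide separated for read-out, kinase activity inhibition derived across a dose-response series, DMSO under 2%.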

Sequence of ROCK2 (O75116 whole entry, species assumed): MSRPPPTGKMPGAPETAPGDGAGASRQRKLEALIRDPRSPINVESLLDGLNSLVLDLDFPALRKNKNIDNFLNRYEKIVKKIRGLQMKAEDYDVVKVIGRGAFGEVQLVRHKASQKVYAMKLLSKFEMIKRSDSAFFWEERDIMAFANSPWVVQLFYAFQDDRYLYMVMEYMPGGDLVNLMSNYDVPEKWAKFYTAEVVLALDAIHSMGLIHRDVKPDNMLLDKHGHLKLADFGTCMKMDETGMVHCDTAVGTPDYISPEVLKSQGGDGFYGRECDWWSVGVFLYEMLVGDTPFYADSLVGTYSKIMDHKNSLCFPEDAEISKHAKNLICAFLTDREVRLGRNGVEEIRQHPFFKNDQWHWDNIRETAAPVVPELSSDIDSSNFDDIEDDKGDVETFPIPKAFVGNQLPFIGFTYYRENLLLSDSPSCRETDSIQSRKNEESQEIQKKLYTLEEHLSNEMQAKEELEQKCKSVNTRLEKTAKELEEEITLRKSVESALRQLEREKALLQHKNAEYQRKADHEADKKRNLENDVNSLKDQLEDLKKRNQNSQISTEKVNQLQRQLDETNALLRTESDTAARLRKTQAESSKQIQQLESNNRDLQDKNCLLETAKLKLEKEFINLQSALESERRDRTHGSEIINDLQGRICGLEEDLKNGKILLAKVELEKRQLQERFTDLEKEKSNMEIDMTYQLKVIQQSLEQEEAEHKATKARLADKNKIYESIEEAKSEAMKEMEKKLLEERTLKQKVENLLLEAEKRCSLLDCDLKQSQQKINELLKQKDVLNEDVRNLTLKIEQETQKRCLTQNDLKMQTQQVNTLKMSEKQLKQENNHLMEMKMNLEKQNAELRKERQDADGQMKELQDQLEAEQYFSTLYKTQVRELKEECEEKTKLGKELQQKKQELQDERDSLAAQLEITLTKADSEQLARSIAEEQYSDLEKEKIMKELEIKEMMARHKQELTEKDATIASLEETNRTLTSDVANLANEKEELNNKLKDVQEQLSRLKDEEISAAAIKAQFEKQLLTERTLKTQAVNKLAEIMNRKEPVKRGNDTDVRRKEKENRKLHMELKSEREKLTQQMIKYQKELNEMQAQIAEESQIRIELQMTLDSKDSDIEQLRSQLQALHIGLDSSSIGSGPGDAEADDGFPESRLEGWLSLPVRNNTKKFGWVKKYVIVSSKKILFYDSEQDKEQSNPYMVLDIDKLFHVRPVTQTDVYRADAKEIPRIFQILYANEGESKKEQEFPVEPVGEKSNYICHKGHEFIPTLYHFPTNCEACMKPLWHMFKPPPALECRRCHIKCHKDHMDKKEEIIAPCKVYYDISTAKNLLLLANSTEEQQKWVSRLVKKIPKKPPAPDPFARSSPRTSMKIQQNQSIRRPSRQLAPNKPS

Broadly, the IC50 is the midpoint of a concentration-inhibition curve. High values mean weaker potency, low ones greater potency. In the case of `COc1ccc(F)c(NC2CCN(c3ccc(-c4cn[nH]c4)c(C)c3)C2=O)c1` (single isomer, unassigned) [Example 364, 3-((2-fluoro-5-methoxyphenyl)amino)-1-(3-methyl-4-(1H-pyrazol-4-yl)phenyl) pyrrolidin-2-one], the concentration for half-maximal inhibition (IC50) lay in the range of 10 to 100 nM.

As for `COc1c(F)cccc1NC1CCN(c2ccc(-c3cn[nH]c3)cc2)C1=O` (single isomer, unassigned) [Example 15, 1-(4-(1H-pyrazol-4-yl)phenyl)-3-((3-fluoro-2-methoxyphenyl)amino)pyrrolidin-2-one], the IC50 was less than 10 nM.

`COc1nc(N2CCC(N3CC[C@H](O)C3)C2=O)ccc1-c1cn[nH]c1` (mixture of isomers) [Example 295, (3S)-3-hydroxy-1′-(6-methoxy-5-(1H-pyrazol-4-yl)pyridin-2-yl)-[l,3′-bipyrrolidin]-2′-one]: the IC50 was 100 to 2200 nM.

Take `COc1c(F)cccc1NC1CCN(c2ccc(-c3cn[nH]c3)cc2F)C1=O` (single isomer, unassigned) [Example 342, 3-((3-fluoro-2-methoxyphenyl)amino)-1-(2-fluoro-4-(1H-pyrazol-4-yl)phenyl) pyrrolidin-2-one]: the IC50 was 100 to 2200 nM.

`COc1cccc(NC2CCN(c3ccc(-c4cn[nH]c4)c(F)c3)C2=O)c1` (single isomer, unassigned) [Example 45, 1-(3-fluoro-4-(1H-pyrazol-4-yl)phenyl)-3-((3-methoxyphenyl)amino)pyrrolidin-2-one] showed an IC50 of less than 10 nM.

With `COc1nc(N2CCC(N3CCOc4ccccc43)C2=O)ccc1-c1cn[nH]c1` (racemic) [Example 225, 3-(2H-benzo[b][1,4]oxazin-4(3H)-yl)-1-(6-methoxy-5-(1H-pyrazol-4-yl)pyridin-2-yl)pyrrolidin-2-one], the IC50 is less than 10 nM.

`COc1nc(N2CCC(Nc3cccc(-c4nnn[nH]4)c3)C2=O)ccc1-c1cn[nH]c1` (racemic) [Example 266, 3-((3-(1H-tetrazol-5-yl)phenyl)amino)-1-(6-methoxy-5-(1H-pyrazol-4-yl)pyridin-2-yl)pyrrolidin-2-one] showed an IC50 of 10 to 100 nM.

As for `COc1nc(N2CCC(N3CCC(F)(F)CC3)C2=O)ccc1-c1cn[nH]c1` (racemic) [Example 282, 3-(4,4-difluoropiperidin-1-yl)-1-(6-methoxy-5-(1H-pyrazol-4-yl)pyridin-2-yl)pyrrolidin-2-one hydrochloride], the IC50 was 10 to 100 nM.

The molecule `COc1c(F)cccc1NC1CCN(c2ccc(-c3cn[nH]c3)c(OC(F)F)c2)C1=O` (single isomer, unassigned) [Example 33, 1-(3-(difluoromethoxy)-4-(1H-pyrazol-4-yl)phenyl)-3-((3-fluoro-2-methoxyphenl)amino)pyrrolidin-2-one] returned an IC50 of 10 to 100 nM.

`COc1cccc(NC2CCN(c3ccc(-c4cn[nH]c4)cc3)C2=O)c1` (single isomer, unassigned) [Example 28, 1-(4-(1H-pyrazol-4-yl)phenyl)-3-((3-methoxyphenyl)amino)pyrrolidin-2-one] gave an IC50 of less than 10 nM.

For `COc1nc(N2CCC(Nc3cccc(OC(C)C)c3)C2=O)ccc1-c1cn[nH]c1` (racemic) [Example 267, 3-((3-isopropoxyphenyl)amino)-1-(6-methoxy-5-(1H-pyrazol-4-yl)pyridin-2-yl)pyrrolidin-2-one], the IC50 was in the range of 10 to 100 nM.

`COc1cccc(C2CCN(c3ccc(-c4cn[nH]c4)cc3)C2=O)c1` (stereo not drawn) [Example 103, 1-(4-(1H-pyrazol-4-yl)phenyl)-3-(3-methoxyphenyl)pyrrolidin-2-one] gave an IC50 of less than 10 nM.

Take `COc1ccc(F)c(NC2CCN(c3ccc(-c4cn[nH]c4)c(F)c3)C2=O)c1` (single isomer, unassigned) [Example 334, 1-(3-fluoro-4-(1H-pyrazol-4-yl)phenyl)-3-((2-fluoro-5-methoxyphenyl)amino) pyrrolidin-2-one]: the IC50 fell in the range of 10 to 100 nM.

In the case of `O=C1[C@H](Nc2cccc(OCC3CC3)c2)CCN1c1ccc(-c2cn[nH]c2)cc1` (single isomer, unassigned) [Example 235, 1-(4-(1H-pyrazol-4-yl)phenyl)-3-((3-(cyclopropylmethoxy)phenyl)amino) pyrrolidin-2-one], the IC50 was less than 10 nM.

As for `COc1ccc(N[C@@H]2CCN(c3ccc(-c4cn[nH]c4)cc3)C2=O)c(OC)c1` [Example 384, (R)-1-(4-(1H-pyrazol-4-yl)phenyl)-3-((2,4-dimethoxyphenyl)amino)pyrrolidin-2-one], the IC50 was in the range of 100 to 2200 nM.

Molecule `O=C1C(Nc2cccc(OCC3CC3)c2)CCN1c1ccc(-c2cn[nH]c2)cn1` (single isomer, unassigned) [Example 320, 1-(5-(1H-pyrazol-4-yl)pyridin-2-yl)-3-((3-(cyclopropylmethoxy)phenyl)amino) pyrrolidin-2-one] had an IC50 of 100 to 2200 nM.

For `O=C1C(Nc2cncnc2)CCN1c1ccc(-c2cn[nH]c2)cc1` (racemic) [Example 227, 1-(4-(1H-pyrazol-4-yl)phenyl)-3-(pyrimidin-5-ylamino)pyrrolidin-2-one], the IC50 lay within 10 to 100 nM.

`O=C1C(Nc2cccc(OCC3CC3)c2)CCN1c1ccc(-c2cn[nH]c2)cc1` (single isomer, unassigned) [Example 233, 1-(4-(1H-pyrazol-4-yl)phenyl)-3-((3-(cyclopropylmethoxy)phenyl)amino) pyrrolidin-2-one] had an IC50 of 10 to 100 nM.

Molecule `CCc1cc(N2CCC(Nc3cc(F)cc(OC)c3)C2=O)ccc1-c1cn[nH]c1` (single isomer, unassigned) [Example 246, 1-(3-ethyl-4-(1H-pyrazol-4-yl)phenyl)-3-((3-fluoro-5-methoxyphenyl)amino) pyrrolidin-2-one] yielded a concentration for half-maximal inhibition (IC50) of less than 10 nM.

The molecule `COc1ccc(NC2CCN(c3ccc(-c4cn[nH]c4)cc3F)C2=O)cc1F` (single isomer, unassigned) [Example 344, 1-(2-fluoro-4-(1H-pyrazol-4-yl)phenyl)-3-((3-fluoro-4-methoxyphenyl)amino) pyrrolidin-2-one] gave an IC50 of 100 to 2200 nM.

Consider `COc1nc(N2CCC(Nc3cnn(C(C)C)c3)C2=O)ccc1-c1cn[nH]c1` (racemic) [Example 272, 3-((1-isopropyl-1H-pyrazol-4-yl)amino)-1-(6-methoxy-5-(1H-pyrazol-4-yl)pyridin-2-yl)pyrrolidin-2-one], for which the IC50 lay within 100 to 2200 nM.

In the case of `COc1cc(NC2CCN(c3ccc(-c4cn[nH]c4)c(C#N)c3)C2=O)ccc1F` (single isomer, unassigned) [Example 379, 5-(3-((4-fluoro-3-methoxyphenyl)amino)-2-oxopyrrolidin-1-yl)-2-(1H-pyrazol-4-yl)benzonitrile], the IC50 was in the range of 100 to 2200 nM.

For the molecule `CCc1nc(N2CCC(Nc3ccc(F)c(OCC4CC4)c3)C2=O)ccc1-c1cn[nH]c1` (single isomer, unassigned) [Example 211, 3-((3-(cyclopropylmelhoxy)-4-fluorophenyl)amino)-1-(6-ethyl-5-(1H-pyrazol-4-yl)pyridin-2-yl)pyrrolidin-2-one], the IC50 was 10 to 100 nM.

As to `O=C1C(Cc2c(F)cccc2F)CCN1c1ccc(-c2cn[nH]c2)cc1` (stereo not drawn) [Example 94, 1-(4-(1H-pyrazol-4-yl)phenyl)-3-(2,6-difluorobenzyl)pyrrolidin-2-one], the 50% inhibitory concentration (IC50) was 100 to 2200 nM.

The values above are taken from US10112929B2, “Lactams as inhibitors of rock” (BRISTOL-MYERS SQUIBB COMPANY, priority 2015, dated 2018).
